Measurements taken from US9101588B2, “Composition for lowering blood uric acid level” (TAISHO PHARMACEUTICAL CO., LTD., priority 2009, dated 2015).

Key:
Type in all cases: in vivo, human
[1] = system: subjects thought to have lifestyle diseases; assay: Test Example 1: randomized double blind test, change in uric acid level, powder of Example 1 vs placebo, 14 days; details: for uric acid level degree changed MAX / uric acid level degree changed MEDIAN / uric acid level degree changed MIN / uric acid level degree changed MEAN: start to completion
Procedure: Forty subjects who were 20 years old or older and thought to have lifestyle diseases under the following conditions were grouped into 2 each consisting of 20 subjects. A placebo and the powder prepared in Example 1 were administered to the respective groups twice a day by 2.04 g (2000 mg in terms of taurine amount) in a single dose for 14 days. The change in the uric acid level was checked by a randomized double blind test.
Before this test was started, screening tests were conducted twice. Subjects who met all the conditions of Conditions 1 to 3 below in the first screening test were subjected to the second screening. Further, since the amount of taurine in the body seemed to influence the result of this test, subjects who met Condition 4 in addition to Conditions 1 to 3 in the second screening test were subjected to this test. In each administration group, the result was sub-grouped with a benchmark of the uric acid level of 7.0 mg/dL which served as the index for hyperuricemia. The uric acid levels were compared between the groups.
Incidentally, one case which was assigned to the taurine-administered group was terminated because another disease occurred before the administration was started.
Condition 1: LDL cholesterol was 140 mg/dL or above
Condition 2: triglyceride was 150 mg/dL or above but below 400 mg/dL
Condition 3: total cholesterol was 220 mg/dL or above
Condition 4: an amount of urinary taurine excreted (in urine collected for 24 hours) was 1500 μmol or below
In addition, each administration group was sub-grouped with a benchmark of the uric acid level of 7.0 mg/dL at the start, and the percentage of change in the uric acid level was compared in each group.

[2] = system: subjects thought to have hyperuricemia; assay: Test Example 3: randomized double blind test, serum uric acid level and uric acid clearance value, powder of Example 1 vs placebo, 14 days
Procedure: Sixteen subjects who were 20 years old or older and thought to have hyperuricemia under the following conditions were grouped into 2 each consisting of 8 subjects. A placebo and the powder prepared in Example 1 were administered to the respective groups twice a day by 2.04 g (2000 mg in terms of taurine amount) in a single dose for 14 days. The change in the uric acid level was checked by a randomized double blind test.
Before this test was started, screening tests were conducted twice. Subjects who met the condition of Condition below in the first screening test were subjected to the second screening. Subjects who met Condition again in the second screening test were subjected to this test. Furthermore, in this test, in order to check the change in a uric acid clearance value that would influence the change in the uric acid level, the uric acid level and the uric acid clearance value were measured four times, that is, 1 hour before administration, 1 hour after administration, 2 hours after administration, and 3 hours after administration when the taurine administration was started as well as similarly four times when the administration was completed. It should be noted that in order to make conditions equal between when the administration was started and when completed, the subjects were stayed in a hospital 3 days and 2 nights before each measurement, and had the same meals.
Incidentally, one case which was assigned to the taurine-administered group was terminated because another disease occurred during the 14-day administration period.
Condition: serum uric acid level was 7.0 mg/dL or above but below 9.0 mg/dL
In addition, as in Test Examples 1 and 2, each administration group was sub-grouped with a benchmark of the uric acid level of 7.0 mg/dL at the start. The percentage of change in the uric acid level was compared in each group.
Next, the change (ratio of change) in the uric acid clearance value, when the administration was started, representing uric acid-excretion efficiency was compared between the administration groups.
Moreover, the change (ratio of change) in the uric acid clearance value when the administration was completed was also compared between the administration groups.

[3] = system: subjects of Test Examples 1 to 3; assay: Taurine-administered cases of Test Examples 1 to 3 summed, degree of uric acid level changed; details: for uric acid level degree changed MAX / uric acid level degree changed MEDIAN / uric acid level degree changed MIN / uric acid level degree changed MEAN: start to completion; for mean value of uric acid level decreased by / median of uric acid level decreased by: Table 6
Procedure: Next, degrees of serum uric acid levels changed before and after the administration in the taurine-administered cases of Test Examples 1 to 3 were lined up in the order of subjects having higher levels before the administration.
Moreover, the taurine-administered cases of Test Examples 1 to 3 were summed and sub-grouped with a benchmark of the uric acid level of 7.0 mg/dL at the start. Degrees of uric acid levels changed were compared between the sub-groups.

[4] = system: subjects thought to have hyperuricemia; assay: Test Example 3: randomized double blind test, serum uric acid level and uric acid clearance value, powder of Example 1 vs placebo, 14 days; details: 1 hour before administration at start vs 3 hours before administration at completion, 2000 mg taurine twice a day, FIG. 1
[5] = start level 7.0 mg/dL or above, 8 cases
[6] = start level 7.0 mg/dL or above, 8 cases, at completion (14 days)
[7] = start level 7.0 mg/dL or above, 8 cases, at start
[8] = start level below 7.0 mg/dL, 11 cases
[9] = start level below 7.0 mg/dL, 11 cases, at completion (14 days)
[10] = start level below 7.0 mg/dL, 11 cases, at start
[11] = subjects with uric acid level 7.0 mg/dL or above, Table 1
[12] = subjects with uric acid level below 7.0 mg/dL, Table 1
[13] = start level 7.0 mg/dL or above, 4 cases
[14] = start level below 7.0 mg/dL, 3 cases
[15] = start level 7.0 mg/dL or above, 60 cases, at completion
[16] = start level 7.0 mg/dL or above, 60 cases, at start
[17] = start level 7.0 mg/dL or above, 60 cases
[18] = start level below 7.0 mg/dL, 87 cases, at completion
[19] = start level below 7.0 mg/dL, 87 cases, at start
[20] = start level below 7.0 mg/dL, 87 cases
[21] = subjects with uric acid level 7.0 mg/dL or above
[22] = subjects with uric acid level below 7.0 mg/dL

## NCCS(=O)(=O)O [Taurine, aminoethylsulfonic acid]
[1]; [5]
  Change in uric acid level: subjects who did not show decrease: 0 (0.0) ( ): %
  Change in uric acid level: subjects who showed decrease: 8 (100.0) ( ): %
  uric acid level degree changed MAX: -0.3 mg/dL
  uric acid level degree changed MEDIAN: -0.70 mg/dL
  uric acid level degree changed MIN: -1.3 mg/dL
[1]; [6]
  uric acid level MAX: 8.3 mg/dL
  uric acid level MEAN: 7.36 mg/dL
  uric acid level MEDIAN: 7.50 mg/dL
  uric acid level MIN: 6.4 mg/dL
[1]; [7]
  uric acid level MAX: 9.1 mg/dL
  uric acid level MEDIAN: 8.30 mg/dL
  uric acid level MIN: 7.0 mg/dL
[1]; start level 7.0 mg/dL or above, 8 cases, at start, 2000 mg taurine twice a day, 14 days
  uric acid level MEAN: 8.11 mg/dL
[1]; start level 7.0 mg/dL or above, 8 cases, listed as taurine
  Change in uric acid level: subjects who showed decrease: 8 ( ): %
[1]; start level 7.0 mg/dL or above, 8 cases, one-sample t-test P < 0.001
  uric acid level degree changed MEAN: -0.75 mg/dL
[1]; start level 7.0 mg/dL or above, 95% CI −1.42 to −0.15, P = 0.020
  two-sample t-test estimation: difference in degree changed, taurine group vs placebo group: −0.78[−1.42 mg/dL
[1]; [8]
  Change in uric acid level: subjects who did not show decrease: 6 (54.5) ( ): %
  Change in uric acid level: subjects who showed decrease: 5 (45.5) ( ): %
  uric acid level degree changed MAX: 0.5 mg/dL
  uric acid level degree changed MEDIAN: 0.1 mg/dL
  uric acid level degree changed MIN: -0.9 mg/dL
[1]; [9]
  uric acid level MAX: 6.5 mg/dL
  uric acid level MEAN: 5.49 mg/dL
  uric acid level MEDIAN: 5.9 mg/dL
  uric acid level MIN: 1.1 mg/dL
[1]; [10]
  uric acid level MAX: 6.8 mg/dL
  uric acid level MEAN: 5.54 mg/dL
  uric acid level MEDIAN: 5.9 mg/dL
  uric acid level MIN: 0.8 mg/dL
[1]; start level below 7.0 mg/dL, 11 cases, one-sample t-test P = 0.747
  uric acid level degree changed MEAN: -0.05 mg/dL
[1]; start level below 7.0 mg/dL, 95% CI −0.44 to 0.18, P = 0.386
  two-sample t-test estimation: difference in degree changed, taurine group vs placebo group: −0.13[−0.44 mg/dL
[1]; [11]
  mean value of uric acid level decreased by: 0.75 mg/dL
  median of uric acid level decreased by: 0.70 mg/dL
[1]; [12]
  mean value of uric acid level decreased by: 0.05 mg/dL
  median of uric acid level increased by: 0.1 mg/dL
[1]; taurine group, 7.0 mg/dL or above vs below 7.0 mg/dL, 95% CI −1.09 to −0.31, P = 0.001
  two-sample t-test estimation: difference in degree changed between sub-groups: −0.70[−1.09 mg/dL
[2]; [13]
  Change in uric acid level: subjects who did not show decrease: 0 (0.0) ( ): %
  Change in uric acid level: subjects who showed decrease: 4 (100.0) ( ): %
[2]; start level 7.0 mg/dL or above, 4 cases, listed as taurine
  Change in uric acid level: subjects who showed decrease: 4 ( ): %
[2]; [14]
  Change in uric acid level: subjects who did not show decrease: 1 (33.3) ( ): %
  Change in uric acid level: subjects who showed decrease: 2 (66.7) ( ): %
[2]; when the administration was completed, 2 hours after the administration, FIG. 3
  uric acid clearance value, mean ratio of change (increase): ≥ 30%
[2]; when the administration was completed, 3 hours after the administration, FIG. 3
  uric acid clearance value, mean ratio of change (increase): ≥ 20%
[2]; when the administration was started, 2 hours after the administration, FIG. 2
  uric acid clearance value, mean ratio of change (increase): ≥ 40%
[2]; when the administration was started, 3 hours after the administration, FIG. 2
  uric acid clearance value, mean ratio of change (increase): ≥ 30%
[3]; 7.0 mg/dL or above vs below 7.0 mg/dL, 95% CI −0.69 to −0.30, P < 0.001
  two-sample t-test estimation: difference in degree changed between sub-groups: −0.49[−0.69 mg/dL
[3]; results of Test Examples 1 to 3
  uric acid level after oral administration (conclusion): significant decrease
[3]; [15]
  uric acid level MAX: 10.6 mg/dL
  uric acid level MEAN: 7.33 mg/dL
  uric acid level MEDIAN: 7.35 mg/dL
  uric acid level MIN: 4.6 mg/dL
[3]; [16]
  uric acid level MAX: 10.8 mg/dL
  uric acid level MEDIAN: 7.80 mg/dL
  uric acid level MIN: 7.0 mg/dL
[3]; start level 7.0 mg/dL or above, 60 cases, at start, Test Examples 1 to 3 summed
  uric acid level MEAN: 7.95 mg/dL
[3]; [17]
  uric acid level degree changed MAX: 0.7 mg/dL
  uric acid level degree changed MEDIAN: -0.60 mg/dL
  uric acid level degree changed MIN: -2.6 mg/dL
[3]; start level 7.0 mg/dL or above, 60 cases, one-sample t-test P < 0.001
  uric acid level degree changed MEAN: -0.62 mg/dL
[3]; [18]
  uric acid level MAX: 7.6 mg/dL
  uric acid level MEAN: 5.54 mg/dL
  uric acid level MEDIAN: 5.5 mg/dL
  uric acid level MIN: 1.1 mg/dL
[3]; [19]
  uric acid level MAX: 6.9 mg/dL
  uric acid level MEAN: 5.67 mg/dL
  uric acid level MEDIAN: 5.8 mg/dL
  uric acid level MIN: 0.8 mg/dL
[3]; [20]
  uric acid level degree changed MAX: 1.0 mg/dL
  uric acid level degree changed MEDIAN: -0.1 mg/dL
  uric acid level degree changed MIN: -1.6 mg/dL
[3]; start level below 7.0 mg/dL, 87 cases, one-sample t-test P = 0.028
  uric acid level degree changed MEAN: -0.13 mg/dL
[3]; [21]
  mean value of uric acid level decreased by: 0.62 mg/dL
  median of uric acid level decreased by: 0.60 mg/dL
[3]; [22]
  mean value of uric acid level decreased by: 0.13 mg/dL
  median of uric acid level decreased by: 0.1 mg/dL
[4]
  mean value of serum uric acid level decreased by: 0.53 mg/dL
